Structures can show the parent of a compound that is named as a salt.
What was measured:
adult housefly [1] = assay: Efficacy against adult housefly, calves intravenous injection (Example 17); format: in vivo, Musca domestica; conditions: daily i.v. 0.5 to 1.5 mg/kg escalating, day per line
Experimental: (§1) For the adult housefly test, 10 ml. of serum were employed to saturate a wick which was placed in a petri dish. Twenty-five chilled houseflies were placed in the dish which was then incubated for 24 hours at 27° C. and 50% relative humidity. After the end of the twenty-four hours, the efficacy of the candidate compound was determined as the percent mortality of housefly, adjusted as for blowfly by normal mortality in a control and reported according to the same scale as above.
A group of three calves each weighing about 220 kilograms was employed. The compound of Example 2, 2-hydroxy-2-(1,1,2,2-tetrafluoroethyl)-4-nitro-6-(trifluoromethyl)benzimidazoline, sodium salt, was dissolved in distilled water and the resulting solution was administered by intravenous injection. Rates of administration increased throughout the evaluation period, from 0.5 to 1.5 mg./kg. of body weight, with each dose supplied for a period of 5 days (except the 1.5 mg./kg. dose, which was administered for 6 days).
(§2) On each day of the evaluation, immediately preceding that day's injection, a sample of blood was withdrawn from each calf. The concentration of the compound in the blood was determined; and the efficacy of the compound against adult housefly and blowfly larvae was assayed by the method described in Example 15. […]

blowfly larvae = assay: Efficacy against blowfly larvae, calves intravenous injection (Example 17); format: in vivo, Phormia regina; conditions: daily i.v. 0.5 to 1.5 mg/kg escalating, day per line
Experimental: (§3) Representative compounds of the present invention were evaluated against larvae of blowfly (Phormia regina) and against adult housefly (Musca domestica). In these evaluations, the candidate compound was administered to each of two male guinea pigs weighing from about 400 grams to about 1000 grams. Administration was via the intraperitoneal route, the compound having been formulated in sesame oil. At twenty-four hours following administration of the compound, blood was withdrawn from the guinea pigs. The serum portion was isolated and blowfly larvae and adult houseflies were fed on the serum. For the blowfly assay, 10 ml. of serum were placed in a test tube with a wick onto which 50 blowfly larvae were placed. The covered test tube was incubated at 27° C. for 24 hours, at which time efficacy of the candidate compound was determined as the percent mortality of the blowfly larvae, adjusted by normal mortality in a control, and reported according to the following rating scale:
A group of three calves each weighing about 220 kilograms was employed. […]
as §2

adult housefly [2] = assay: Adult houseflies fed on serum of dosed guinea pigs; format: in vivo, Musca domestica; conditions: guinea pig, serum at 24 hours
Experimental: as §3
Percent mortality was determined separately for each guinea pig.
as §1

SMILES: O=[N+]([O-])c1cc(C(F)(F)F)cc2c1NC(O)(C(F)(F)C(F)F)N2 (stereo not drawn) [Example 2, 2-Hydroxy-2-(1,1,2,2-Tetrafluoroethyl)-4-Nitro-6-(Trifluoromethyl)Benzimidazoline, Sodium Salt, and Hydrate]
- % Efficacy, Adult Housefly (adult housefly [1]; calf 987): 100%
- % Efficacy, Adult Housefly (adult housefly [1]; calf 991): 100%
- % Efficacy, Blowfly Larvae (blowfly larvae; calf 986): 100%
- % Efficacy, Blowfly Larvae (blowfly larvae; calf 991): 100%

SMILES: O=[N+]([O-])c1cc(Cl)cc2c1NC(O)(C(F)F)N2 (stereo not drawn) [Example 5, 2-Hydroxy-2-(Difluoromethyl)-4-Nitro-6-Chlorobenzimidazoline, Calcium Salt]
- Efficacy Rating, Adult Housefly (adult housefly [2]; 1 mg./kg. i.p.): 1 (<50% dead)
- Efficacy Rating, Adult Housefly (adult housefly [2]; 5 mg./kg. i.p.): 1 (<50% dead)

From US4265901A, “2-Oxybenzimidazoline compounds” (priority 1979, dated 1981)
